Assay results reported in patent publication US12606554B2, “Compounds and pharmaceutical compositions thereof for the treatment of diseases” (ONCO3R Therapeutics BV, priority 2019, dated 2026).

Tests used:
[1] = mice; Wein et al. 2016; cited from earlier work
SIK1 = target: T1, SIK1 (Homo sapiens, UniProt P57059); assay: ADP-Glo kinase assay, SIK1; assay type: biochemical; details: AMARA peptide 45 μM, 5 μM ATP, 120 min, read-out: SIM1 IC50
T1 construct: purchased Carna Biosciences 02-131
Text: (§1) The ADP-Glo™ kinase assay is a luminescent technology assay which measures the ADP formed from a kinase reaction. In this specific study, the kinase reactions consisted of the phosphorylation of the AMARA peptide substrate (SignalChem, Cat #A11-58) by SIK1 (Carma Biosciences, Cat #02-131), SIK2 (ThermoFisher Scientific, Cat #PV4792) or SIK3 (SignalChem, Cat #S12-11G-100). In a second step the kinase reactions are terminated and all the remaining ATP is depleted. In a final step the ADP is converted into ATP and this newly synthesized ATP is measured by using a luciferase/luciferin reaction. The generated light is measured using an Envision plate reader, wherein the luminescent signal obtained positively correlates with the kinase activity.
(§2) The test compounds are prepared as a serial dilution of 10 point dose responses with ⅕ dilution steps in 100% DMSO starting from 2 mM highest concentration, diluted 1/20 in water and […] is transferred to the assay plates (PerkinElmer Inc., Cat #6007290).
(§3) 1% DMSO and 10 μM staurosporine final concentrations are used as negative and positive controls.
(§4) 2 μL enzyme-substrate mixture is added to the assay plates.
(§5) The reaction is started by adding 2 μL diluted ATP on the assay plates. Plates are centrifuged for a few seconds at 1000 rpm and gently shaken for 2 min followed by an incubation at RT for 120 min.
(§6) The reactions are stopped and the unconsumed ATP is depleted by adding 5 μL ADP-Glo Reagent (Promega, Cat #V9121B) to the reaction. The plates are centrifuged for a few seconds at 1000 rpm and incubated at RT for […] (ATP depletion).
(§7) The ADP is converted to ATP and luciferase and luciferin is introduced to detect ATP by adding 10 μL Kinase Detection Reagent (Promega, Cat #V913B+V914r) to the reaction. The plates are centrifuged for a few seconds at 1000 rpm and incubated at RT for 30 min (ADP detection).
(§8) Luminescence is measured on an Envision plate reader (PerkinElmer Inc.).
(§9) Raw data are generated following the read-out performed on the TopCount, plotted to generate dose response curves to calculate percentage inhibition (PIN) and average IC50 for each SIK homologue which are reported in the table below.

SIK2 = target: T2, SIK2 (Homo sapiens, UniProt Q9H0K1); assay: ADP-Glo kinase assay, SIK2; assay type: biochemical; details: AMARA peptide 45 μM, 5 μM ATP, 120 min
T2 construct: purchased ThermoFisher Scientific PV4792
T2 sequence (Q9H0K1 whole entry): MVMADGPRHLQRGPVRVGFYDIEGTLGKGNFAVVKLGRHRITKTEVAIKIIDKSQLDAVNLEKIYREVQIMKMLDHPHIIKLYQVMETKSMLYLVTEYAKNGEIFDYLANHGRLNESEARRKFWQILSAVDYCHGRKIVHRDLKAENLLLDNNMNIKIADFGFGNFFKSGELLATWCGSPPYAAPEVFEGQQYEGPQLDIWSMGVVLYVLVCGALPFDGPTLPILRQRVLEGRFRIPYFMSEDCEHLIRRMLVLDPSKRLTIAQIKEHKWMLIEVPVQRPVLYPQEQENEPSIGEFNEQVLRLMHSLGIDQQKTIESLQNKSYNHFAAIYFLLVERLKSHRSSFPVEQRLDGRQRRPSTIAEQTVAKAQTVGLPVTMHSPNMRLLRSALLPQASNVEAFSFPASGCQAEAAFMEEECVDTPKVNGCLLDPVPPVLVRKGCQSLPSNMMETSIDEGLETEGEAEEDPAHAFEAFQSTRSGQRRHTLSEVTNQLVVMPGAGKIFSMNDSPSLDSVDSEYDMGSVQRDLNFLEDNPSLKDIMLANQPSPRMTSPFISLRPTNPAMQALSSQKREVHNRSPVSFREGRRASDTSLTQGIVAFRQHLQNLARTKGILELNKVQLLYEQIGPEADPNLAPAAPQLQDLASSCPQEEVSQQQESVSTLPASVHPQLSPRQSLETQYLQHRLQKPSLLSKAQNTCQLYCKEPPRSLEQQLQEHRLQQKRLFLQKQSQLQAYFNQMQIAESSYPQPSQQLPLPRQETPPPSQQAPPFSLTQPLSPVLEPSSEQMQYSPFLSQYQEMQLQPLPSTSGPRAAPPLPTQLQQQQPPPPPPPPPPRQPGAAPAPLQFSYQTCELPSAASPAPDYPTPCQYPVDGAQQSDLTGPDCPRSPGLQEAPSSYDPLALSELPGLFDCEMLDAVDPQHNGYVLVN
Text: as §1, §2, §3, §4, §5, §6, §7, §8, §9

SIK3 = target: T3, SIK3 (Homo sapiens, UniProt Q9Y2K2); assay: ADP-Glo kinase assay, SIK3; assay type: biochemical; details: AMARA peptide 45 μM, 5 μM ATP, 120 min
T3 construct: purchased SignalChem S12-11G-100
T3 sequence (Q9Y2K2 whole entry): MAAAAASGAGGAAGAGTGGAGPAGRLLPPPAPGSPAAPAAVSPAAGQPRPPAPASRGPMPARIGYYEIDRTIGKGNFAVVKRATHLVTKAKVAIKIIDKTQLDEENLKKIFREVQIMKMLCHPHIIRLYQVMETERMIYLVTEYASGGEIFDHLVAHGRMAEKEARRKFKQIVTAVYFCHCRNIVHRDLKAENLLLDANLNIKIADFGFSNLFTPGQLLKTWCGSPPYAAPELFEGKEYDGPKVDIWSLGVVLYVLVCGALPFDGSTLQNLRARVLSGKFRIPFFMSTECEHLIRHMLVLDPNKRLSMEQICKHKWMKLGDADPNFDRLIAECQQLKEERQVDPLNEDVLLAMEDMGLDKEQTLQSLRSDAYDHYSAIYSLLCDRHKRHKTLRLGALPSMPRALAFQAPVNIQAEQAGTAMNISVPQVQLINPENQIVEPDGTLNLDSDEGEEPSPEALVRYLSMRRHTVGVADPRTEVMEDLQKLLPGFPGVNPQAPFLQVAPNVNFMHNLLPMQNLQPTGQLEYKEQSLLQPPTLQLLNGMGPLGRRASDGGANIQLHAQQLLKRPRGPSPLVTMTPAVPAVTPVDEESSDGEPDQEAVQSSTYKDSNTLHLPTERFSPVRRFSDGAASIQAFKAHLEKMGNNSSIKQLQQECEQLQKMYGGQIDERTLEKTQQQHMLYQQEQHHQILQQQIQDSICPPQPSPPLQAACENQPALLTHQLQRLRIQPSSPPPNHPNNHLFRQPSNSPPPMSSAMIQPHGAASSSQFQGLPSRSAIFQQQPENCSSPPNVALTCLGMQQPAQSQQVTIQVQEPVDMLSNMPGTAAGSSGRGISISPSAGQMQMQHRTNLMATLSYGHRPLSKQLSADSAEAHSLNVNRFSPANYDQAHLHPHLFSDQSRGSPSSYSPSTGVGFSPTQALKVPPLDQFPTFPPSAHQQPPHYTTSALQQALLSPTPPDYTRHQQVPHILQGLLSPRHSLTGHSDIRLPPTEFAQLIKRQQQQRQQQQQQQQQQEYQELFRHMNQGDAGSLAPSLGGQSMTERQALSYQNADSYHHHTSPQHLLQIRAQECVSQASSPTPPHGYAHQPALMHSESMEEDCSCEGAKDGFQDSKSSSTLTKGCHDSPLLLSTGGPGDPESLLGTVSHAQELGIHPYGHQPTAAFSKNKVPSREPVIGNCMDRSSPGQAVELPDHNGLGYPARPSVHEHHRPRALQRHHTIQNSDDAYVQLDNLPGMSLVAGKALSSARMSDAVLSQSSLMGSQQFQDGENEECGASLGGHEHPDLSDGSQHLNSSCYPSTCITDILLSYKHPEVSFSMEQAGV
Text: as §1, §2, §3, §4, §5, §6, §7, §8, §9

[2] = test system: LPS-induced TNFα in monocytes; assay: Monocytes assay: LPS-triggered TNFα (ELISA); assay type: cell-based; details: Homo sapiens, Monocyte, LPS 200 ng/mL, supernatant after 4 h
Description: SIK inhibition inhibits TNFα and increases IL-10 release in LPS triggered monocyte-derived macrophages (MdM) and dendritic cells (MdDCs) (Clark et al. 2012; Sundberg et al. 2014; Ozanne et al. 2015). This assay evaluates illustrative compounds of the invention for their inhibition of LPS-induced TNFα and LPS triggered IL-10 secretion in monocytes.
PBMCs are isolated from human blood samples (buffycoats). The buffy coat is aseptically transferred into a 50 mL Falcon tube, and diluted ½ in PBS. Falcon tubes are filled with 20 mL Lymphoprep™, on top of which 25 mL of the buffy coat is carefully added, tubes are centrifuged for 35 min at 400 g in temperature controlled centrifuge, without brake, at 25° C. PBMCs are aspirated from the white interface layer between sample and Lymphoprep™. PBMCs are washed five times in PBS. Cells are resuspended in RPMI 1640 complete medium supplemented with 10% FBS, 1% P/S, and cell density is determined using a hematologic analyzer (Sysmex XS-500i).
PBMCs are centrifuged at 300×g for 10 min and resuspended at a density of 1.0*10^7 cells/80 μL Miltenyi buffer (PBS, pH 7.4, 1% FBS, 2 mM EDTA).
Starting from this point of the protocol all steps are performed on ice. 20 μL of CD14+ micro-beads are added per 1.0*10^7 cells, the tube is mixed and incubated for 15 min in the fridge at 4° C. Cell suspension volume is adjusted to total volume of 100 mL using Miltenyi buffer, mixed gently and subsequently centrifuged for 10 min at 300×g. Supernatant is discarded and cell pellet is resuspended in 12 mL of Miltenyi buffer.
Four LS columns are placed in the MACS Separator (magnet) from Miltenyi Biotec, and are prewet by rinsing with 3 mL of MACS buffer per column. Three mL of cell suspension is added onto the column (max 1*10^8 of labelled cells/column), and columns are subsequently washed 3 times with 3 mL of Miltenyi buffer.
The columns are removed from the magnets, and 5 mL of Miltenyi buffer are added to the column to flush out the CD14+ fraction by pushing the plunger into the column. The flushed fractions are collected in a fresh 50 mL Falcon and volume is adjusted to 30 mL using Miltenyi buffer, cells are centrifuged for 10 min at 300×g. The obtained cell pellet is resuspended in 10 mL RPMI w/o FBS, and cell density is determined using a hematologic analyser (Sysmex XS-500i). 100 000 cells are seeded in 80 μL per well of a 96-well plate in RPMI 1640 medium supplemented with 10% FBS, 1% P/S.
A compound dilution plate is made in 100% DMSO by 3-fold dilution of 10 mM stock solution. An intermediate dilution plate (10× final concentration) is made by diluting the compound dilution plate 50-fold in RPMI medium.
10 μL of the 10× final concentration compound is added to the cells and incubated for 1 h at 37° C. before addition of trigger. […]

T1 sequence (P57059 whole entry): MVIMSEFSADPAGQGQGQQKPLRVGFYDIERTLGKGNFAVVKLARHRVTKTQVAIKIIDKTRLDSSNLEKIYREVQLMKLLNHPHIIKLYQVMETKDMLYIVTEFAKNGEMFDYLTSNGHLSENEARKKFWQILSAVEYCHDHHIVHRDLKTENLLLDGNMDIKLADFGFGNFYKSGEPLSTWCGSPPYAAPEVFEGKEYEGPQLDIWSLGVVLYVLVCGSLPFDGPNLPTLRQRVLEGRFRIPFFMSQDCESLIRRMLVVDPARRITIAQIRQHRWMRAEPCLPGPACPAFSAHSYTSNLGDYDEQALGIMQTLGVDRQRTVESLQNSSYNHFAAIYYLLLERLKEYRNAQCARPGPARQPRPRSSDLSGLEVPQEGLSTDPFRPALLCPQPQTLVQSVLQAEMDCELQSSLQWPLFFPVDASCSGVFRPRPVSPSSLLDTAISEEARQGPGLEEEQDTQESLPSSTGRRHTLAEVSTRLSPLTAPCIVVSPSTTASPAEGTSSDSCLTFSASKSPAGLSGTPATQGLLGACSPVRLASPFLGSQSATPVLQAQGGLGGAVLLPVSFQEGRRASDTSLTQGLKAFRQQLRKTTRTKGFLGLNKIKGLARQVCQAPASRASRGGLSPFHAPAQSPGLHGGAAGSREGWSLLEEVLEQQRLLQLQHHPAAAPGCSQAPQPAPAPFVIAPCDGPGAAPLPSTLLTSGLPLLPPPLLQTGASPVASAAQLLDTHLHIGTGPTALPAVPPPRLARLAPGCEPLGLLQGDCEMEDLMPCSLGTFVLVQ

Row | Structure (SMILES) | bone formation and bone mass [1] | IC50 (SIK1) [nM] | IC50 (SIK2) [nM] | IC50 (SIK3) [nM] | EC50 [2] [nM]
1 | COc1ccc(N2C(=O)N(c3c(C)cccc3Cl)Cc3cnc(Nc4ccc(C5CCN(C)CC5)cc4OC)nc32)nc1 [YKL-05-099] | increased bone formation and bone mass |  |  |  | 
2 | COc1cc(-c2cnc3cc(OCCN4CCOCC4)cnn23)cc2c1C(=O)N(CC(F)(F)F)CC2 [Cpd 5, 8-methoxy-6-[7-(2-morpholinoethoxy)imidazo[1,2-b]pyridazin-3-yl]-2-(2,2,2-trifluoroethyl)-3,4-dihydroisoquinolin-1-one] |  | > 500 | 10 to 100 | 10 to 100 | 
3 | COc1cc(-c2cnn3cc(OC(C)(C)CN4CC5(COC5)C4)ccc23)cc(OC(F)F)c1C(=O)N[C@@H]1C[C@@H]1F [Cpd 6, 2-(difluoromethoxy)-4-[6-[1,1-dimethyl-2-(2-oxa-6-azaspiro[3.3]heptan-6-yl)ethoxy]pyrazolo[1,5-a]pyridin-3-yl]-N-[(2S)-2-fluorocyclopropyl]-6-methoxy-benzamide] |  | > 500 | 10 to 100 | 10 to 100 | 100 to 1000
4 | COc1cc(-c2cnn3cc(OCCN4CCOCC4)cnc23)cc2c1C(=O)N(CC(F)(F)F)CC2 [Cpd 4, 8-methoxy-6-[6-(2-morpholinoethoxy)pyrazolo[1,5-a]pyrimidin-3-yl]-2-(2,2,2-trifluoroethyl)-3,4-dihydroisoquinolin-1-one] |  | > 500 | 10 to 100 | 10 to 100 | 
